One may read the inhibition as the percentage by which the read-out fell short of the control. Broadly, the IC50 is the midpoint of a concentration-inhibition curve. A low value points to greater potency in that assay.

A value given as a limit tells only on which side of the number the result lay.

For one assay, the target named is T1, Aurora-A (Mus musculus, UniProt P97477).
T1 construct: followed by the full length protein encoding the murine Aurora-A; polyhistidine (N); made in house; host or cells: Sf9 insect cells
T1 sequence (P97477 1-395): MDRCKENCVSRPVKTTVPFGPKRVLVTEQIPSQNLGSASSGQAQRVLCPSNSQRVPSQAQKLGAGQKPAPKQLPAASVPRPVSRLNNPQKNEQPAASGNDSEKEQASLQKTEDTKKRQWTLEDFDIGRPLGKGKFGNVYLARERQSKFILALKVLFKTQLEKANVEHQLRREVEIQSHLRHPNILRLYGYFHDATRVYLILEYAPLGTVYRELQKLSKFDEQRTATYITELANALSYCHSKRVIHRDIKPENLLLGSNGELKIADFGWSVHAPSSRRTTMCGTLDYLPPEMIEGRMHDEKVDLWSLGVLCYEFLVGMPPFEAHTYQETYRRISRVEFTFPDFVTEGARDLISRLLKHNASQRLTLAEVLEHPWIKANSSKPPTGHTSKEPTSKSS
The assay can be described thus: Aurora-A screening assay (33P-ATP FlashPlate kinase assay). Type of assay: biochemical, murine. Particulars: for inhibition at 10 µM: single test concentration 10 μM; for inhibition at 10 µM / inhibition at 100 µM: read-out: Aurora-A percent inhibition; for IC50: 10 μM ATP; for inhibition at 100 µM: single test concentration 100 μM. As to the method:
(§1) 70 μL of the kinase reaction mixture was dispensed into the well of a streptavidin coated FlashPlate™ (Cat. # SMP103, NEN, Boston, Mass.).
(§2) Test compound stock in 100% DMSO (1 μL) was added to the wells resulting in a final concentration of 1% DMSO in the reaction with a 100 μL final reaction volume. Each enzyme was diluted in 50 mM Tris-HCl pH=8.0, 0.1% BSA and 30 μL was added to each well to initiate the reaction. The reaction was incubated for one hour at 30° C. At the end of the 1 hr incubation, the reaction was terminated by aspirating the mixture from the plate and washing the wells twice with PBS containing 100 mM EDTA. The biotinylated peptide substrate became immobilized on the Flashplate™ and the incorporation of ^33P-γ-ATP was measured by reading the plate on a scintillation counter. Inhibition of the enzymatic activity was measured by observing a reduced amount of ^33P-γ-ATP incorporated into the immobilized peptide.
Aurora-A is a fusion protein containing a polyhistidine tag at the N terminus followed by the full length protein encoding the murine Aurora-A (Accession number GB BC014711) expressed and purified from sf9 insect cells. The assay used 400 ng of the N-terminal biotinylated peptide biotin-[…]-amide (Aurora-A) per well.
(§3) A maximum and minimum signal for the assay was determined on each plate. The percent inhibition of a test compound was calculated according to the formula: [formula]

In the next assay the target is T2, VEGF-R2 kinase domain (Rattus norvegicus, UniProt O08775).
T2 construct: polyhistidine (N)
The assay can be described thus: VEGF-R2 screening assay (33P-ATP FlashPlate kinase assay). Type of assay: biochemical. Particulars: for IC50: 10 μM ATP; for inhibition at 100 µM: single test concentration 100 μM, read-out: VEGF-R2 percent inhibition. As to the method: as §1, §2
The assay used 150 ng of the N-terminal biotinylated peptide biotin-[…]-amide (VEGF-R2) per well.
as §3

The subject of the next assay is A375 malignant melanoma. The experiment in a line: Cell proliferation inhibition assay (14C-thymidine incorporation), A375. Type of assay: cell-based. The note with it: Homo sapiens, A-375. The source says:
(§4) The ability of a test compound to inhibit unregulated cell proliferation may be determined by measuring incorporation of ^14C-labelled thymidine into newly synthesized DNA within cell lines derived from carcinomas originating from several tissues. Accordingly, the effect of a test compound on proliferation of cells with a variety of phenotypes may be determined.
(§5) Carcinoma cell lines used include the HeLa cervical adenocarcinoma from the American Type Culture Collection (ATCC Cat. #CCL2), A375 malignant melanoma (ATCC Cat. #CRL-1619) and HCT-116 colon carcinoma (ATCC Cat. #CCL-247).
(§6) The carcinoma cells are trypsinized and counted. The cells (3000-8000 count) are added to each well of a 96-well CytoStar tissue culture treated scintillating microplate (Amersham #RPNQO160) in complete medium (100 μL) and the plate is then incubated in complete medium for 24 hrs at 37° C. in an inert atmosphere containing 5% CO2.
(§7) Test compound (1 μL) in 100% DMSO is added to the plate test-wells with DMSO only added to control-wells. The plate is incubated in complete medium for a second 24 hr period at 37° C. in an atmosphere containing 5% CO2.
(§8) An aliquot of a solution of Methyl ^14C-thymidine (56 mC/mmol) (NEN #NEC568 or Amersham #CFA532) and complete medium (20 uL to provide 0.2 μCi/well) is then added to each well and the plate is incubated for a third 24 hr period at 37° C. in an atmosphere containing 5% CO2.
(§9) The plate contents are then discarded, the plate is washed twice with PBS (200 μL) and then PBS (200 μL) is added to each well. The plate is sealed and the degree of methyl ^14C-thymidine incorporation is quantified on a Packard Top Count.
(§10) For a series of test concentrations, the IC50 was derived by graphing percent inhibition against the log of the concentrations tested for a given compound with results shown in Table 2.
(In general: Incorporation of labelled thymidine or its analogues reports DNA synthesis.)

Assay [1] concerns HeLa cervical adenocarcinoma. The assay can be described thus: Cell proliferation inhibition assay (14C-thymidine incorporation), HeLa. Type of assay: cell-based. The note with it: Homo sapiens.
Description: as §4, §5, §6, §7, §8, §9, §10

A further assay has as its system HCT-116 colon carcinoma. The assay can be described thus: Cell proliferation inhibition assay (14C-thymidine incorporation), HCT116. Particulars: Homo sapiens. Format: cell-based.
Description: as §4, §5, §6, §7, §8, §9, §10

T2 sequence (O08775 786-1343): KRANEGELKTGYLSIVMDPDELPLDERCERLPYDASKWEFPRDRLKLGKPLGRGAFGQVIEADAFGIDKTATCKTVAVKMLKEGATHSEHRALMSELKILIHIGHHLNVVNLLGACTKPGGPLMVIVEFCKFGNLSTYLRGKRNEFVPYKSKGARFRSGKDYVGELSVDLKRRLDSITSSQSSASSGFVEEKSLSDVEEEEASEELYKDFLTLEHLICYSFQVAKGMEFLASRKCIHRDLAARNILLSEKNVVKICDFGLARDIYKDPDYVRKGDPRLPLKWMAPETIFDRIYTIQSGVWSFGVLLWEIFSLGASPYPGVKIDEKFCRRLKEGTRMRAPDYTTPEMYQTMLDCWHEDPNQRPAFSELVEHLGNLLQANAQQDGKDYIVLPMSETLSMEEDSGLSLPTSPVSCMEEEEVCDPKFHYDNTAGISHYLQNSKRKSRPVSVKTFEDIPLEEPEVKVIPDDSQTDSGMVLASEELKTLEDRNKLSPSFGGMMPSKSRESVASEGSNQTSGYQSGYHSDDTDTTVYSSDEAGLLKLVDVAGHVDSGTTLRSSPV

Take `COc1ccc2[nH]c(-c3ccc([N+](=O)[O-])c4c3C(=O)NC4)cc2c1` [Cpd 16, 7-(5-methoxy-1H-indol-2-yl)-4-nitro-2,3-dihydro-isoindol-1-one]: the inhibition at 10 µM at Aurora-A came out at 52%. In addition, the half-maximal inhibitory concentration (IC50) against VEGF-R2 kinase domain stood at 0.0229 µM; in the assay on A375 malignant melanoma it was 5.23 µM; in assay [1], 9.42 µM; with HCT-116 colon carcinoma, 3.09 µM.

In the case of `COc1ccc2c(c1)cc(-c1cccc3c1C(=O)NC3=O)n2C(=O)OC(C)(C)C` [Cpd 21, 2-(1,3-dioxo-2,3-dihydro-1H-isoindol-4-yl)-5-methoxy-indole-1-carboxylic acid tert-butyl ester], the IC50 at Aurora-A is 0.27 µM; against VEGF-R2 kinase domain it was 1.52 µM; with A375 malignant melanoma, greater than 100 µM; in assay [1] it was 43 µM; in the assay on HCT-116 colon carcinoma it was greater than 100 µM.

For the compound `COc1ccc2c(c1)cc(-c1cccc3c1C(=O)NC3)n2C(=O)OC(C)(C)C` [Cpd 27, 5-methoxy-2-(3-oxo-2,3-dihydro-1H-isoindol-4-yl)-indole-1-carboxylic acid tert-butyl ester], at Aurora-A, the inhibition at 10 µM came out at 48%. For the same compound, the inhibition at 100 µM at VEGF-R2 kinase domain was 57%. The IC50 in the assay on A375 malignant melanoma was greater than 10 µM; in assay [1], 55.9 µM; in the assay with HCT-116 colon carcinoma, greater than 10 µM.

As for `CC(C)(C)OC(=O)n1c(-c2cccc3c2C(=O)NC3)cc2cc(O)ccc21` [Cpd 28, 5-hydroxy-2-(3-oxo-2,3-dihydro-1H-isoindol-4-yl)-indole-1-carboxylic acid tert-butyl ester], the IC50 on Aurora-A is 9.35 µM; with A375 malignant melanoma, 34.4 µM; in assay [1], 34.8 µM; in the assay with HCT-116 colon carcinoma, greater than 10 µM. Also, the inhibition at 100 µM at VEGF-R2 kinase domain amounted to 62%.

As for `CC(C)(C)OC(=O)n1c(-c2cccc3c2C(=O)NC3)cc2cc(OCCN3CCCCC3)ccc21` [Cpd 29, 2-(3-oxo-2,3-dihydro-1H-isoindol-4-yl)-5-(2-piperidin-1-yl-ethoxy)-indole-1-carboxylic acid tert-butyl ester], the inhibition at 100 µM at Aurora-A was determined as 58%; at VEGF-R2 kinase domain, 63%. The half-maximal inhibitory concentration (IC50) with A375 malignant melanoma was 4.14 µM; in assay [1], 14.6 µM; in the assay on HCT-116 colon carcinoma, greater than 1 µM.

As for `CC(C)(C)OC(=O)n1c(-c2cccc3c2C(=O)NC3)cc2cc(OCCN3CCOCC3)ccc21` [Cpd 30, 5-(2-morpholin-4-yl-ethoxy)-2-(3-oxo-2,3-dihydro-1H-isoindol-4-yl)-indole-1-carboxylic acid tert-butyl ester], the inhibition at 100 µM on Aurora-A was 57%; on VEGF-R2 kinase domain it was 65%. The half-maximal inhibitory concentration (IC50) with A375 malignant melanoma was found to be 5.31 µM; in assay [1] it was 20.3 µM; with HCT-116 colon carcinoma it was 17 µM.

On to `COc1cc2c(c(-c3cc4cc(OC)ccc4n3C(=O)OC(C)(C)C)c1)C(=O)NC2` [Cpd 31, 5-Methoxy-2-(6-methoxy-3-oxo-2,3-dihydro-1H-isoindol-4-yl)-indole-1-carboxylic acid tert-butyl ester], for which the inhibition at 100 µM on Aurora-A amounted to 40%; on VEGF-R2 kinase domain it was 17%. The figures for the IC50 (in the assay with A375 malignant melanoma; in assay [1]; with HCT-116 colon carcinoma) were 39.6 µM, 44.3 µM and 39.5 µM, respectively.

The values are drawn from patent US20070161648A1, “Substituted dihydro-isoindolones useful in treating kinase disorders” (priority 2005, published 2007).
